Laboratory results: patent publication US8906925B2, “Pyrido[4,3-B]indoles containing rigid moieties” (Medivation Technologies, Inc., priority 2008, dated 2014)
“And” between values parts separate entries of the source, which are not always exact repeats. Equal entries are not always repeated.

What was measured:
[1] = target: T1, human recombinant serotonin 5-HT7 receptor (Homo sapiens, UniProt P34969); test: 5-HT7 antagonist functional assay (cAMP, HTRF, CHO cells); type: cell-based; conditions: vs 100 nM 5-HT
T1 construct: expressed in transfected cells; host or cells: CHO cells
Description: To determine for agonist or antagonist activity of compounds of the invention in functional assays, human recombinant serotonin 5-HT2A receptor expressed in human embryonic kidney (HEK-293) cells (Jerman J C, Brough S J, Gager T, Wood M, Coldwell M C, Smart D and Middlemiss D N, Eur J Pharmacol, 414: 23-30, 2001) or human recombinant serotonin 5-HT7 receptor expressed in CHO cells (Adham, et al. J. Pharmacol. Exp. Ther. 287:508-514, 1998) was used. Cells were suspended in DMEM buffer, and distributed in microplates. For the 5-HT2A assay, a cytoplasmic calcium fluorescent indicator which varies proportionally to the free cytosolic Ca^2+ ion concentration was mixed with probenicid in HBSS buffer complemented with 20 mM Hepes (pH 7.4), added into each well and equilibrated with the cells for 30 min. at 37° C. followed by 30 min. at 22° C. For the 5-HT7 assay, the reaction product was cAMP, detected by HTRF.
The standard reference antagonist was ketanserin (5-HT2A) or mesulergine (5-HT7), which was tested in each experiment at several concentrations to generate a concentration-response curve from which its IC50 value was calculated. Compounds were screened at […] or lower, using DMSO as vehicle.

mice (e.g., C57Bl/6J) = test: Amphetamine-induced hyperactivity, open field test; type: in vivo, mouse; conditions: amphetamine (4 mg/kg), 90 min. test
Procedure: Male mice (various strains e.g., C57Bl/6J) from appropriate supplier (for example Jackson Laboratories, Bar Harbor, Me.) were used. Mice typically were received at 6-weeks of age. Mice were acclimated to the colony room for at least two weeks prior to testing. During the period of acclimation, mice were examined on a regular basis, handled, and weighed to assure adequate health and suitability and maintained on a 12 h/12 h light/dark cycle. The room temperature was maintained between 20 and 23° C. with a relative humidity maintained between 30% and 70%. Food and water were provided ad libitum for the duration of the study. In each test, animals were randomly assigned between treatment groups.
The open field test (OF) was used to assess motor activity. […] Horizontal activity (distance traveled) and vertical activity (rearing) were measured from consecutive beam breaks.
On the day of testing, animals were brought to the experimental room for at least 1 h acclimation prior to start of treatment. […] The time of administration of test compound to each animal was recorded. Baseline activity was recorded for […]. following which mice received amphetamine (4 mg/kg) or water and were placed back in the OF chambers for a 60-min. session. […]
Data were analyzed by analysis of variance (ANOVA) followed by post-hoc comparisons with Fisher Tests when appropriate. […]

T1 sequence (P34969 whole entry): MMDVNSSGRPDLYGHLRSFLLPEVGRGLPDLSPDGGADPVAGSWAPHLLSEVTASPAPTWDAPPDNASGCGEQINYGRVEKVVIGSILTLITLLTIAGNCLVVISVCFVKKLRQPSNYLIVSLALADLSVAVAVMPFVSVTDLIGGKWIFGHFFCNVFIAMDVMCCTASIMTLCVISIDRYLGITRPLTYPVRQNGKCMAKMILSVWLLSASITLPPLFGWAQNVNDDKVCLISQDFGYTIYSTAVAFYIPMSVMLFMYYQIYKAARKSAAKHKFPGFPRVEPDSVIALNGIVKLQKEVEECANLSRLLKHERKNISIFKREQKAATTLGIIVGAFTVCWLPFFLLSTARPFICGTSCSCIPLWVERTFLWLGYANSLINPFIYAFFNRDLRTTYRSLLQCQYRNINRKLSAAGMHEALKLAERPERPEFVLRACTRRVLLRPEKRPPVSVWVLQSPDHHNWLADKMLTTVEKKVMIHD

`C/C(=C\n1c2c(c3cc(Cl)ccc31)CN(C)CC2)c1ccc(F)cc1` [Compound 83, (E)-8-chloro-5-(2-(4-fluorophenyl)prop-1-enyl)-2,3,4,5-tetrahydro-2-methyl-1H-pyrido[4,3-b]indole] was tested, and the IC50 [1] was 460 nM and 770 nM, the “Total Distance Traveled (center+periphery), ANOVA” value (mice (e.g., C57Bl/6J)) was “significant treatment effect” and the “Total Rearing (center+periphery), ANOVA” value (mice (e.g., C57Bl/6J)) was “significant treatment effect”.
